Data taken from PMC10285300, “Abscisic acid mimic-fluorine derivative 4 alleviates water deficit stress by regulating ABA-responsive genes, proline accumulation, CO2 assimilation, water use efficiency and better nutrient uptake in tomato plants” (Frontiers in Plant Science, 2023).

Assays:
ΔN-HAB1 = target: T1, ΔN-HAB1 (Arabidopsis thaliana, UniProt Q9CAJ0); assay: phosphatase activity, […] nm, […] min; type: biochemical; details: 25 mM pNPP, 10 mM MnCl2, Tris pH 8.0
T1 sequence (Q9CAJ0 172-511 limits assumed): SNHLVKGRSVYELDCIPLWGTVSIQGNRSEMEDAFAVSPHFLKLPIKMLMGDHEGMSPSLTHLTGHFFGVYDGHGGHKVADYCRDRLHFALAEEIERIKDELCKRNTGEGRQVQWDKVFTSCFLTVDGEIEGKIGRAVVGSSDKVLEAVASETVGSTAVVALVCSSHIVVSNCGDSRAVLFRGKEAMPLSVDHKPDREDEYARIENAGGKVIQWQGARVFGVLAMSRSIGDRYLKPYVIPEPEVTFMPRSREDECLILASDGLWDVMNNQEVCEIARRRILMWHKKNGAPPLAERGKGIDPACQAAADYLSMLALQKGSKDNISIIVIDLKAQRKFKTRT

Sl08g076960 = target: T2, Sl08g076960 (Solanum lycopersicum, UniProt A0A3Q7HTY9); assay: PP2C inhibition assay (pNPP, […] nm), receptor-dependent inhibition of HAB1; type: biochemical; details: agonist; deltaN-HAB1 1 uM, receptor 2 uM, 25 mM pNPP, 10 mM MnCl2, Tris pH 8.0
T2 construct: gene LOC101268417; with Protein phosphatase 2C 16 (Arabidopsis thaliana)
T2 sequence (A0A3Q7HTY9 1-231): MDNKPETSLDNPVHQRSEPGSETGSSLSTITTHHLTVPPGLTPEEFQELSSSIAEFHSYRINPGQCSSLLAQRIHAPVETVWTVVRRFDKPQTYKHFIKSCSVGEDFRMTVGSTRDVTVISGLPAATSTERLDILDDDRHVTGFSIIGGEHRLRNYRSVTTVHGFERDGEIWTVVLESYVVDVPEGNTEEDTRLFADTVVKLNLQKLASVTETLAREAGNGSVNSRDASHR
T2 sequence (Q9CAJ0 172-511 partner limits assumed): T1 sequence (Q9CAJ0 172-511 limits assumed)

Row | Compound | phosphatase activity, 405 nm, 20 min (ΔN-HAB1) | PP2C activity at 1 or 10 μM (Sl08g076960)
1 | O=[N+]([O-])c1ccc(OP(=O)(O)O)cc1 [p-nitrophenyl phosphate] | Phosphatase activity was measured using p-nitrophenyl phosphate (pNPP) as a substrate | 
2 | CCCN1C(=O)CCc2cc(NS(=O)(=O)Cc3c(F)c(F)c(C)c(F)c3F)ccc21 [AMF4, N-(2-oxo-1-propyl-1,2,3,4-tetrahydroquinolin-6-yl)-1-(2,3,5,6-tetrafluoro-4-methylphenyl) methanesulfonamide] |  | both PYL1-like tomato receptors were activated by AMF4, resulting in the inhibition of the PP2C
